From publication PMC9369794 (Molecules, 2022)
Where a name gives a salt, the structure may show the parent alone. Values belong to the molecule of their own block, whether it stands above or below them.

What was measured:
[1] = Hydrodynamic diameter and colloidal stability of aggregates by dynamic light scattering; format: physicochemical; conditions: for mean size (hydrodynamic diameter) / zeta potential: 37 °C; for PDI: sd^2/mean size^2
Method: In contrary, all spectra gave a hypsochromic shift and loss of fine-structure when the DMSO solutions were diluted with PBS, which refers to the formation of H-type (card-pack) aggregates (Figures S1–S12). Since DMSO-containing aqueous systems are more suitable for biological studies, we examined these solution by dynamic light scattering (DLS) spectroscopy to gain more information about the particles. The concentrations of the examined solutions were the same as used in the ABTS/TEAC measurements (0.3125–5.00 μM, see next section).
Size determination of aggregates and the colloidal stability of the sample dispersions were determined by dynamic light scattering measurements, where the hydrodynamic diameter of particles, and zeta potential values were collected. The number-weighted size distribution indicated one main peak in each case, the polydispersity index (PDI) was calculated as sd^2/mean size^2. For the particle size analysis Malvern Zetasizer Nano S instrument and for the zeta potential determination Malvern Zetasizer Nano Z instrument were used (Malvern Panalytical Ltd., Great Malvern, Worcestershire, UK). The measurements were carried out in autocorrelation mode, and the following parameters were kept constant: scattering angle 173°, attenuator 11 and its factor 0.0146, measurement position 4.65 mm. The concentrations of sample dispersions were between 0.3125 and 5 µM. The dispersion medium was PBS. Each samples was examined after 6 min incubation period at 37 °C.

[2] = TEAC assay using ABTS radical; conditions: 6 min, ratio of slopes to trolox (melatonin dissolved in EtOH); for TEAC from DMSO: stock in DMSO diluted with PBS pH 7.4, 37 °C; for TEAC from THF: stock in THF diluted with PBS pH 7.4, 37 °C
Method: This method uses a redox reaction between ABTS^•+ radical cation and the examined antioxidants, which act as the reducing agents. […] As the carotenoids and the conjugates are poorly soluble in water, they were dissolved first either in small amounts of freshly distilled tetrahydrofuran (THF) or in dimethylsulfoxide (DMSO), and these stock solutions were diluted with phosphate-buffered saline (PBS) to the final nominal concentration.
The TEAC values were determined in isotonic phosphate buffer of pH 7.4. The buffer solution was made by dissolving 9.55 g of DPBS powder in distilled water to form 1L of solution (composition: 0.138 M NaCl, 0.0027 M KCl, 0.0081 M Na2HPO4, 0.0015 M KH2PO4). The assay was performed according to a literature process with slight modifications. The ABTS^•+ radical cation was produced by reacting 7 mM 2,2′-azino-bis(3-ethylbenzothiazoline-6-sulfonic acid) and 2.45 mM potassium persulfate in water. The stock ABTS^•+ solution was prepared 12–16 h before the experiments, and stored at room temperature in dark. The absorbance of the ABTS^•+ solution was set to 0.70 ± 0.05 at 734 nm by a ca. 100-fold dilution with phosphate-buffered saline (PBS). […] The stock solutions were diluted with PBS such that equal amounts of the diluted solutions were added to the ABTS^•+ reagent to obtain final antioxidants concentrations of 0.3125, 0.625, 1.25, 2.50, 3.75, 5 μM, respectively. In the blank (0 μM), the solutions of the antioxidants were substituted with THF or DMSO.
The antioxidants were incubated with ABTS^•+ solution at 37 °C for 6 min. During the reaction of ABTS^•+ with the antioxidants the absorbance of the solution decreases. The percentage inhibition of absorbance at 734 nm was calculated as (A0 − Aantioxidant)/A0, where A0 is the absorbance of the ABTS^•+ solution and Aantioxidant is the absorbance measured after the addition of the antioxidant. The determinations were carried out at each concentration in triplicate. The calculated values were plotted against the final concentration of the antioxidants. The slopes of the curves were compared with that for trolox, the TEAC value is the ratio of the slopes for the antioxidant and for trolox.

[3] = FRAP assay for the antioxidant capacity; parameters: key to FRAP: slope of concentration-absorbance line divided by Trolox slope; conditions: stock in THF, acetate buffer pH 3.0, 37 °C, 15 min; ratio of slopes to trolox (melatonin in EtOH)
Method: In the FRAP method the antioxidant reduces Fe^3+ to Fe^2+ in an acidic medium. These experiments were performed in an acetate buffer of pH 3.0, the stock solutions of the examined antioxidants were prepared in THF. The antioxidant capacities were compared to that of Trolox as a standard, just like in the ABTS assays.
A modified literature process was used. The FRAP reagent should also be prepared freshly each day. 2,4,6-Tris(2-pyridyl)-s-triazin (TPTZ) was dissolved in a 200 mM HCl solution and diluted with water to get a final 40 mM HCl and 10 mM TPTZ concentration. For the preparation of the FRAP reagent 30 mL of 20 mM FeCl3 solution and 30 mL of 10 mM TPTZ solution were mixed, and 300 mL of 300 mM acetate buffer with pH 3.0 was added (a pH lower than usual was used to avoid the precipitation of the TPTZ). The FRAP reagent was incubated at 37 °C for 15 min. 150 μL of antioxidant dissolved in THF was mixed with 2.85 mL FRAP reagent solution, and incubated at 37 °C for 15 min in dark. Measurements were carried out at each antioxidant concentration (0, 7.5; 10; 12.5; 15; 17.5 μM final concentration) in triplicate. In the 0 μM solution the antioxidant solution was substituted with acetate buffer (pH 3.0). The FRAP was determined at 600 nm: the absorbance values were plotted as a function of concentration of the sample compounds and that of Trolox for the standard reference data. The FRAP values were calculated as in the ABTS assays, i.e., the slope of the concentration-absorbance lines for the carotenoid derivatives was divided by that for the trolox.

[4] = Study of aggregation by UV-Vis spectrophotometry; format: physicochemical
From the text: It has been known for a long while that carotenoids or their derivatives can be prone to supramolecular organization in water or water-organic solvent mixtures. This behaviour is especially interesting because this higher organization can modulate or alter biological properties of carotenoids, as well [40]. A tendency to form supramolecular structures can be tested by recording the UV spectra in an organic solvent and increasing the ratio of water in the sample. […] We have some recent experience of such behaviour of carotenoid-flavonoid conjugates.
All of our adducts were tested with the method above using tetrahydrofurane (THF) or dimethylsulfoxide (DMSO) with increasing ratio of phosphate-buffered saline (PBS), which was the medium of the antioxidant measurements. […]
1. Study of Aggregation by UV-Vis Spectrophotometry
Starting from THF solutions: each conjugate was dissolved in freshly distilled THF and the solutions were diluted
either with THF or THF-PBS mixtures to obain final solutions of identical carotenoid concentration. […]
Figure S1. UV-spectra of 8’-apo-β-carotenol succinate ( 6) ( a) in THF and in THF-PBS mixtures ( 1:1 , 1:3); (b) in DMSO
Figure S2. UV-spectra of zeaxanthin bissuccinate ( 7) ( a) in THF and in THF-PBS mixtures ( 1:1 , 1:3); (b) in DMSO and
Figure S3. UV-spectra of zeaxanthin monosuccinate ( 11) ( a) in THF and in THF-PBS mixtures ( 1:1 , 1:3); (b) in DMSO […]

[5] = 0.3125 μM in PBS from DMSO stock
[6] = 0.625 μM in PBS from DMSO stock

- mean size (hydrodynamic diameter) [1, 5]: 388.20 nm
- zeta potential [1, 5]: 16.0 mV
- PDI ([1]; 0.3125 μM in PBS): 0.0336
- mean size (hydrodynamic diameter) [1, 6]: 551.20 nm
- zeta potential [1, 6]: 15.4 mV
- PDI ([1]; 0.625 μM in PBS): 0.0410
- mean size (hydrodynamic diameter) ([1]; 1.25 μM in PBS from DMSO stock): 364.50 nm
- zeta potential ([1]; 1.25 μM in PBS from DMSO stock): 2.2 mV
- PDI ([1]; 1.25 μM in PBS): 0.0270
- mean size (hydrodynamic diameter) ([1]; 2.5 μM in PBS from DMSO stock): 638.90 nm
- zeta potential ([1]; 2.5 μM in PBS from DMSO stock): 2.2 mV
- PDI ([1]; 2.5 μM in PBS): 0.0217
- mean size (hydrodynamic diameter) ([1]; 3.75 μM in PBS from DMSO stock): 79.01 nm
- zeta potential ([1]; 3.75 μM in PBS from DMSO stock): 0.7 mV
- PDI ([1]; 3.75 μM in PBS): 0.0112
- mean size (hydrodynamic diameter) ([1]; 5 μM in PBS from DMSO stock): 565.30 nm
- zeta potential ([1]; 5 μM in PBS from DMSO stock): 1.1 mV
- PDI ([1]; 5 μM in PBS): 0.0311
- hydrodynamic diameter of the aggregates ([1]; over the concentrations 0.3125–5.00 μM): 400–600 nm
- melting point: 156 to 157 °C
- type of aggregates formed ([4]; from THF:aqueous solutions): J-type (head-to-tail) aggregates
- change of UV spectrum with increasing ratio of PBS ([4]; starting from THF solutions): bathochromic shift
SMILES: COc1ccc2[nH]cc(CCNC(=O)CNC(=O)CCC(=O)O[C@@H]3CC(C)=C(/C=C/C(C)=C/C=C/C(C)=C/C=C/C=C(C)/C=C/C=C(C)/C=C/C4=C(C)C[C@@H](O)CC4(C)C)C(C)(C)C3)c2c1 [Compound 13, Zeaxanthin-monomelatonin conjugate]
- TEAC from DMSO [2]: 1.34
- TEAC from THF [2]: 1.434
- FRAP [3]: 0.152

SMILES: CC1=C(/C=C/C(C)=C/C=C/C(C)=C/C=C/C=C(C)/C=C/C=C(C)/C=C/C2=C(C)C[C@@H](OC(=O)CCC(=O)O)CC2(C)C)C(C)(C)CCC1 (as salt: succinate) [Compound 8, β-Cryptoxanthin succinate]
- melting point: 142 to 143 °C

SMILES: CC1=C(/C=C/C(C)=C/C=C/C(C)=C/C=C/C=C(C)/C=C/C=C(C)/C=C/C2=C(C)C[C@@H](O)CC2(C)C)C(C)(C)C[C@H](O)C1 [Compound 2, zeaxanthin, reference compound]
- TEAC from DMSO [2]: 2.70
- TEAC from THF [2]: 2.016
- FRAP [3]: 0.351

SMILES: CC1=C[C@H](O)CC(C)(C)[C@H]1/C=C/C(C)=C/C=C/C(C)=C/C=C/C=C(C)/C=C/C=C(C)/C=C/C1=C(C)C[C@@H](O)CC1(C)C [Compound 5, lutein, reference compound]
- TEAC from DMSO [2]: 1.02
- TEAC from THF [2]: 1.571
- FRAP [3]: 0.161

- melting point: 148 to 149 °C
SMILES: CC1=C[C@H](OC(=O)CCC(=O)O)CC(C)(C)[C@H]1/C=C/C(C)=C/C=C/C(C)=C/C=C/C=C(C)/C=C/C=C(C)/C=C/C1=C(C)C[C@@H](OC(=O)CCC(=O)O)CC1(C)C (as salt: succinate) [Compound 10, Lutein bissuccinate]

SMILES: CC1=C(/C=C/C(C)=C/C=C/C(C)=C/C=C/C=C(C)/C=C/C=C(C)/C=C/C(=O)[C@]2(C)C[C@@H](O)CC2(C)C)C(C)(C)C[C@H](O)C1 [Compound 4, capsanthin, reference compound]
- TEAC from DMSO [2]: 0.62
- TEAC from THF [2]: 1.036
- FRAP [3]: 0.197

- melting point: 123 to 124 °C
SMILES: CC1=C(/C=C/C(C)=C/C=C/C(C)=C/C=C/C=C(C)/C=C/C=C(\C)COC(=O)CCC(=O)O)C(C)(C)CCC1 (as salt: succinate) [Compound 6, 8′-Apo-β-carotenol succinate]

- melting point: 143 to 144 °C
SMILES: CC1=C(/C=C/C(C)=C/C=C/C(C)=C/C=C/C=C(C)/C=C/C=C(C)/C=C/C(=O)[C@]2(C)C[C@@H](OC(=O)CCC(=O)O)CC2(C)C)C(C)(C)C[C@H](OC(=O)CCC(=O)O)C1 (as salt: succinate) [Compound 9, Capsanthin bissuccinate]

- melting point: 152 to 153 °C
SMILES: CC1=C(/C=C/C(C)=C/C=C/C(C)=C/C=C/C=C(C)/C=C/C=C(C)/C=C/C2=C(C)C[C@@H](OC(=O)CCC(=O)O)CC2(C)C)C(C)(C)C[C@H](OC(=O)CCC(=O)O)C1 (as salt: succinate) [Compound 7, Zeaxanthin bissuccinate]

SMILES: CC1=C(/C=C/C(C)=C/C=C/C(C)=C/C=C/C=C(C)/C=C/C=C(\C)C=O)C(C)(C)CCC1 [8'-Apo-β-carotenal, 8′-apo-β-carotenal, reference compound]
- TEAC from DMSO [2]: 1.19
- TEAC from THF [2]: 0.953
- FRAP [3]: 0.443

SMILES: CC1=C(/C=C/C(C)=C/C=C/C(C)=C/C=C/C=C(C)/C=C/C=C(C)/C=C/C2=C(C)C[C@@H](O)CC2(C)C)C(C)(C)CCC1 [Compound 3, cryptoxanthin, reference compound]
- TEAC from DMSO [2]: 1.61
- TEAC from THF [2]: 2.062
- FRAP [3]: 0.441
